Reference: US20240110150A1, “PHOTON UPCONVERSION BIOMATERIALS, MICELLE AND NANOPARTICLES FOR THREE-DIMENSIONAL (3D) OPTOGENETICS” (THE TRUESTEES OF COLUMBIA UNIVERSITY IN THE CITY OF NEW YORK, priority 2020, published 2024)

Test system: HeLa cells
Test: Cell viability assay (Cell-Titer-Glo) of emulsions, one hour
Assay type: cell-based
Protocol: HeLa cells (obtained from American Type Culture Collection) were maintained in Dulbecco's Modified Eagle's Medium (Gibco) supplemented with 10% fetal bovine serum (Invitrogen) at 37° C. in a humidified 5% CO2 atmosphere. For viability assays testing biocompatibility of the emulsions, cells were plated in a 96-well white opaque plate format at 40,000 cells per well, allowed to seed overnight, and then treated with emulsions at indicated concentrations for one hour. These viability assays utilized the Cell-Titer-Glo 2.0 reagent (Promega, G9243) according to the manufacturer's instructions. Briefly, 100 μL of Cell-Titer-Glo 2.0 reagent, diluted at 1:1 with culture media, was added to each well containing 100 μl emultion-particles-containing media. Plates were gently agitated for 2 minutes and incubated at room temperature for 10 minutes in the dark to promote adequate mixing. Luminescence was subsequently measured using a Victor 5 plate reader (Perkin Elmer). The intensity of luminescence was normalized to that of cells with no emulsion particles added.

Substance | biocompatibility of emulsion surfactants
Tween 80 | only Pluronic F127 was found to be biocompatible and nontoxic
Pluronic F127 | biocompatible and nontoxic to the cells
